Experimental data taken from patent US20110003868A1, “TREATMENT OF A NEUROPATHY WITH RAPID RELEASE AMINOPYRIDINE” (The UAB Research Foundation, priority 2003, published 2011).

Assays:
[1] = tested on: central nervous system; conditions: has been reported, cited from earlier work
[2] = tested on: subjects with GBS; experiment: Phase II double-blind, placebo controlled, crossover study; motor strength on 0-5 ordinal scale; type: in vivo, human patients; conditions: on average, fast release 4-AP 10 mg three times daily, oral capsule
From the text: This is a Phase II double-blind, placebo controlled, crossover, dose-escalating study in subjects with […]. An initial trial of ten patients is randomized to one of the two treatment sequences (A or B) as shown below. The study population consists of subjects with GBS injury whose neurological status has been stable for at least eighteen months. Ten subjects are enrolled. Variables to be Collected: The measures of neurological status reported for this study are: • Motor strength was rated on the traditional 0-5 ordinal scale: • 0—absent motor strength • 1—trace motor strength • 2—can move the specified joint but only with gravity eliminated • 3—can move the joint against gravity but not against any opposing force • 4—can move the joint against opposing force but the strength is not normal for the person or symmetrical • 5—normal motor strength This scale is employed to measure the following motor strength for each of these joint motions on both the right and the left sides: hip flexion, hip adduction, hip abduction, knee flexion, knee extension, ankle dorsiflexion, ankle plantar flexion, shoulder abduction, elbow extension, elbow flexion, wrist flexion, and wrist extension. 4-AP is compounded in a #1 quick dissolution capsule containing 5 mg 4-AP and 235 mg lactose. […]

Nc1ccnc(N)c1 [2,4-DAP, 2,4-diaminopyridine]
Toxicity ([1]; compared with 4-AP or 2,3-DAP): less toxicity than either 4-AP or 2,3-DAP
Central nervous system stimulation ([1]; compared with 4-AP): less central nervous system stimulation than 4-AP

Nc1ccncc1 [4-AP, 4-aminopyridine]
Upper extremity strength increase relative to placebo [2]: 15%
Lower extremity strength increase relative to placebo ([2]; hip abduction, hip adduction, hip flexion, knee flexion, ankle dorsiflexion and plantar flexion): 15%
